Measured values from patent publication US11180474B2 (BRISTOL-MYERS SQUIBB COMPANY, priority 2016, dated 2021).
Structures can show the parent of a compound that is named as a salt.

What follows are molecules tested against T1, human TLR8 (Homo sapiens, UniProt Q9NR97) (assay: TLR8 inhibition reporter assay (HEK-Blue cells, SEAP reporter, R848 stimulation)). Settings: HEK-Blue cells overexpressing human TLR8, R848 15.9 μM.
T1 construct: host or cells: HEK-Blue cells
T1 sequence (Q9NR97 27-1041): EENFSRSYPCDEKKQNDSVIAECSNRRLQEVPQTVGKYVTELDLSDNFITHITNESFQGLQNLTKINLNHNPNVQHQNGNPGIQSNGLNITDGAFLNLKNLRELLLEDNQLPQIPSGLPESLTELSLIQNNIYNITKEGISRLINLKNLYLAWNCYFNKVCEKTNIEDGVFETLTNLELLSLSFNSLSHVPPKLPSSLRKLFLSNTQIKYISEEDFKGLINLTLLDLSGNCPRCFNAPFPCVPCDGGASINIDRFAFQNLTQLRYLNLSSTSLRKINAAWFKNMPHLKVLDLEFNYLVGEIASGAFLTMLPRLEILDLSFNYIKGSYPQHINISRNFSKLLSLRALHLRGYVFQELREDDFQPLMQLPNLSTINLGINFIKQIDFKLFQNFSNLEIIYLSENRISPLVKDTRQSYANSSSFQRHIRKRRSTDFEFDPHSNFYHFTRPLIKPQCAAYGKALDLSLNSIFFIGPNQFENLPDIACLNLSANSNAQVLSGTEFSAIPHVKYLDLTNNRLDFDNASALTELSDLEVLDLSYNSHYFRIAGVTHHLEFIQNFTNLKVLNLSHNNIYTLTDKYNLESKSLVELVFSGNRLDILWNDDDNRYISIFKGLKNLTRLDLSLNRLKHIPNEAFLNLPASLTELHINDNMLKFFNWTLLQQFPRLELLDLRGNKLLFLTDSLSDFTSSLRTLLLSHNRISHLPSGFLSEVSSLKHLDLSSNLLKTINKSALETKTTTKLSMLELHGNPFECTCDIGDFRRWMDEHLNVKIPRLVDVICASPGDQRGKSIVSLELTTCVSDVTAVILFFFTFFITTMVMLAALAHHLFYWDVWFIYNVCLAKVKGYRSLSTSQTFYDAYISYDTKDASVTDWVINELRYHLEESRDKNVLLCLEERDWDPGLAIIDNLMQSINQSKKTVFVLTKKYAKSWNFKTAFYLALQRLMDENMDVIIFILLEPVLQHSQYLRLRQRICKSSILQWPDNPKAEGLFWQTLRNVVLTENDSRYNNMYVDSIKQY
Type: cell-based
In short: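 In this cell reporter format, test compounds at 0.05 nM-50 μM final incubate 22 h with seeded cells (TLR7 15000, TLR8 20,000 per well). SEAP read-out by HEK-Blue Detection medium yields % inhibition relative to agonist/DMSO and known-inhibitor wells.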

Row | Compound | IC50 [nM]
1 | COc1ccc(-c2[nH]c3ccc(C4CCNCC4(F)F)cc3c2C(C)C)cc1OC (centres unmarked) [Example 325, 5-(3,3-difluoropiperidin-4-yl)-2-(3,4-dimethoxyphenyl)-3-isopropyl-1H-indole] | 147
2 | CCN(CC)C(=O)C1CCCN(CC(=O)N2CCC(c3ccc4[nH]c(-c5ccc(OC)c(OC)c5)c(C5CCOCC5)c4c3)CC2)C1 (centres unmarked) [Example 391, 1-(2-(4-(2-(3,4-dimethoxyphenyl)-3-(tetrahydro-2H-pyran-4-yl)-1H-indol-5-yl)piperidin-1-yl)-2-oxoethyl)-N,N-diethylpiperidine-3-carboxamide] | 356
3 | COc1ccc(-c2[nH]c3ccc(C4CCN(CC(=O)N5CCN(C(C)C)CC5)CC4)cc3c2CC(F)(F)F)cc1OC [Example 362, 2-(4-(2-(3,4-dimethoxyphenyl)-3-(2,2,2-trifluoroethyl)-1H-indol-5-yl)piperidin-1-yl)-1-(4-isopropylpiperazin-1-yl)ethan-1-one] | 109
4 | COc1ccc(-c2[nH]c3ccc(C4CCN(CC(=O)NCCN5CCCC5)CC4)cc3c2CC(F)(F)F)cc1OC [Example 375, 2-(4-(2-(3,4-dimethoxyphenyl)-3-(2,2,2-trifluoroethyl)-1H-indol-5-yl)piperidin-1-yl)-N-(2-(pyrrolidin-1-yl)ethyl)acetamide] | 117
5 | COc1ccc(-c2[nH]c3ccc(C4CCN(C(=O)CN[C@H](C)C(C)C)CC4)cc3c2C2CCOCC2)cc1OC [Example 394, (R)-1-(4-(2-(3,4-dimethoxyphenyl)-3-(tetrahydro-2H-pyran-4-yl)-1H-indol-5-yl)piperidin-1-yl)-2-((3-methylbutan-2-yl)amino)ethan-1-one] | 660
6 | COc1ccc(-c2[nH]c3ccc(C4CCN(C(=O)CC(F)(F)F)CC4)cc3c2CC(F)(F)F)cc1OC [Example 339, 1-(4-(2-(3,4-dimethoxyphenyl)-3-(2,2,2-trifluoroethyl)-1H-indol-5-yl)piperidin-1-yl)-3,3,3-trifluoropropan-1-one] | 822
7 | COc1ccc(-c2[nH]c3ccc(C4CCN(C(=O)CN(C)C)CC4)cc3c2C(O)C(F)(F)F)cc1OC (centres unmarked) [Example 395, 1-(4-(2-(3,4-dimethoxyphenyl)-3-(2,2,2-trifluoro-1-hydroxyethyl)-1H-indol-5-yl)piperidin-1-yl)-2-(dimethylamino)ethan-1-one] | 438
8 | COc1ccc(-c2[nH]c3ccc(C4CCN(CC(=O)Nc5cc(C(C)(C)C)[nH]n5)CC4)cc3c2CC(F)(F)F)cc1OC [Example 387, N-(5-(tert-butyl)-1H-pyrazol-3-yl)-2-(4-(2-(3,4-dimethoxyphenyl)-3-(2,2,2-trifluoroethyl)-1H-indol-5-yl)piperidin-1-yl)acetamide] | 587
9 | COc1ccc(-c2[nH]c3ccc(C4CCN(C(=O)CCC(F)(F)F)CC4)cc3c2CC(F)(F)F)cc1OC [Example 350, 1-(4-(2-(3,4-dimethoxyphenyl)-3-(2,2,2-trifluoroethyl)-1H-indol-5-yl)piperidin-1-yl)-4,4,4-trifluorobutan-1-one] | 2050
10 | COc1ccc(-c2[nH]c3ccc(C4CCN(C(=O)CNC[C@@H](O)CO)CC4)cc3c2C)cc1OC [Example 405, (R)-2-((2,3-dihydroxypropyl)amino)-1-(4-(2-(3,4-dimethoxyphenyl)-3-methyl-1H-indol-5-yl)piperidin-1-yl)ethan-1-one] | 29200
11 | CCc1c(-c2ccc(OC)c(OC)c2)[nH]c2cc(C)c(C3CCNCC3)cc12 [Example 396, 2-(3,4-dimethoxyphenyl)-3-ethyl-6-methyl-5-(piperidin-4-yl)-1H-indole, HCl] | 295
12 | COc1ccc(-c2[nH]c3ccc(C4CCN(C(=O)CCC(N)=O)CC4)cc3c2CC(F)(F)F)cc1OC [Example 333, 4-(4-(2-(3,4-dimethoxyphenyl)-3-(2,2,2-trifluoroethyl)-1H-indol-5-yl)piperidin-1-yl)-4-oxobutanamide] | 702
13 | COc1ccc(-c2[nH]c3ccc(C4CCN(C(=O)CCc5cccnc5)CC4)cc3c2CC(F)(F)F)cc1OC [Example 348, 1-(4-(2-(3,4-dimethoxyphenyl)-3-(2,2,2-trifluoroethyl)-1H-indol-5-yl)piperidin-1-yl)-3-(pyridin-3-yl) propan-1-one] | 1420
14 | COc1ccc(-c2[nH]c3ccc(C4CCN(C(=O)Cc5cnccn5)CC4)cc3c2CC(F)(F)F)cc1OC [Example 342, 1-(4-(2-(3,4-dimethoxyphenyl)-3-(2,2,2-trifluoroethyl)-1H-indol-5-yl)piperidin-1-yl)-2-(pyrazin-2-yl)ethan-1-one] | 591
15 | COc1ccc(-c2[nH]c3ccc(C4CCN(C(=O)Cc5cccnc5)CC4)cc3c2CC(F)(F)F)cc1OC [Example 335, 1-(4-(2-(3,4-dimethoxyphenyl)-3-(2,2,2-trifluoroethyl)-1H-indol-5-yl)piperidin-1-yl)-2-(pyridin-3-yl)ethan-1-one] | 632
16 | COc1ccc(-c2[nH]c3ccc(C4CCN(C(=O)CCn5cccc5)CC4)cc3c2CC(F)(F)F)cc1OC [Example 344, 1-(4-(2-(3,4-dimethoxyphenyl)-3-(2,2,2-trifluoroethyl)-1H-indol-5-yl)piperidin-1-yl)-3-(1H-pyrrol-1-yl)propan-1-one] | 1420

Stronger by IC50, values ahead:

Row | IC50 [nM] | Compound
17 | 76 | COc1ccc(-c2[nH]c3ccc(C4CCN(CC(=O)NCC#N)CC4)cc3c2CC(F)(F)F)cc1OC [Example 381, N-(cyanomethyl)-2-(4-(2-(3,4-dimethoxyphenyl)-3-(2,2,2-trifluoroethyl)-1H-indol-5-yl)piperidin-1-yl)acetamide]
18 | 55 | COc1ccc(-c2[nH]c3ccc(C4CCN(CC(=O)NCCN(C)C)CC4)cc3c2CC(F)(F)F)cc1OC [Example 380, 2-(4-(2-(3,4-dimethoxyphenyl)-3-(2,2,2-trifluoroethyl)-1H-indol-5-yl)piperidin-1-yl)-N-(2-(dimethylamino)ethyl)acetamide]
19 | 44 | COc1ccc(-c2[nH]c3ccc(C4CCN(CC(=O)N5CCC(N6CCN(C)CC6)CC5)CC4)cc3c2CC(F)(F)F)cc1OC [Example 363, 2-(4-(2-(3,4-dimethoxyphenyl)-3-(2,2,2-trifluoroethyl)-1H-indol-5-yl)piperidin-1-yl)-1-(4-(4-methylpiperazin-1-yl)piperidin-1-yl) ethan-1-one]
20 | 43 | COc1ccc(-c2[nH]c3ccc(C4CCN(CC(=O)NCCC5CCCN5C)CC4)cc3c2CC(F)(F)F)cc1OC (centres unmarked) [Example 360, 2-(4-(2-(3,4-dimethoxyphenyl)-3-(2,2,2-trifluoroethyl)-1H-indol-5-yl)piperidin-1-yl)-N-(2-(1-methylpyrrolidin-2-yl)ethyl) acetamide]
21 | 41 | COc1ccc(-c2[nH]c3ccc(C4CCN(C)CC4)cc3c2CC(F)(F)F)cc1OC [Example 355, 2-(3,4-dimethoxyphenyl)-5-(1-methylpiperidin-4-yl)-3-(2,2,2-trifluoroethyl)-1H-indole]
22 | 40 | COc1ccc(-c2[nH]c3ccc(C4CCN(CC(=O)NCCCCN5CCCC5)CC4)cc3c2CC(F)(F)F)cc1OC [Example 388, 2-(4-(2-(3,4-dimethoxyphenyl)-3-(2,2,2-trifluoroethyl)-1H-indol-5-yl)piperidin-1-yl)-N-(4-(pyrrolidin-1-yl)butyl)acetamide]
23 | 36 | COc1ccc(-c2[nH]c3ccc(C4CCN(CC(=O)N(C)CCN(C)C)CC4)cc3c2CC(F)(F)F)cc1OC [Example 367, 2-(4-(2-(3,4-dimethoxyphenyl)-3-(2,2,2-trifluoroethyl)-1H-indol-5-yl)piperidin-1-yl)-N-(2-(dimethylamino)ethyl)-N-methylacetamide]
24 | 32 | COc1ccc(-c2[nH]c3ccc(C4CCN(C(=O)CCN(C)C)CC4)cc3c2CC(F)(F)F)cc1OC [Example 340, 1-(4-(2-(3,4-dimethoxyphenyl)-3-(2,2,2-trifluoroethyl)-1H-indol-5-yl)piperidin-1-yl)-3-(dimethylamino)propan-1-one]
25 | 24 | COc1ccc(-c2[nH]c3ccc(C4CCN(CC(=O)N(C)CCCN(C)C)CC4)cc3c2CC(F)(F)F)cc1OC [Example 365, 2-(4-(2-(3,4-dimethoxyphenyl)-3-(2,2,2-trifluoroethyl)-1H-indol-5-yl)piperidin-1-yl)-N-(3-(dimethylamino)propyl)-N-methylacetamide]
26 | 20 | COc1ccc(-c2[nH]c3ccc(C4CCNCC4F)cc3c2C(C)C)cc1OC (single isomer, unassigned) [Example 324, 2-(3,4-dimethoxyphenyl)-5-(3-fluoropiperidin-4-yl)-3-isopropyl-1H-indole]
